# Test results as given in patent US20110144331A1, “Cinnoline Compounds for the Treatment of Anxiety, Cognitive and Mood Disorders” (AstraZeneca AB, priority 2005, published 2011).
# Columns and labels:
# [1] = target: T1, human α1β2γ2 GABAA receptor (Homo sapiens, UniProt P14867+P18507); assay: Two-electrode voltage-clamp in Xenopus oocytes, potentiation of GABA EC10 current, GABAA1; type: cell-based; settings: percentage potentiation of GABA EC10 current divided by that of diazepam control
# T1 construct: expressed in transfected cells; host or cells: Xenopus laevis oocytes injected with capped cRNA
# Procedure: (§1) GABAA receptors were heterologously expressed in Xenopus oocytes by injecting cRNA corresponding to human α1, α2, α3, α5, β2, β3 and γ2 subunits of the GABAA receptor genes. The specific subunit combinations (subtypes) were as follows: α1β2γ2, α2β3γ2, α3β3γ2, and α5β3γ2. The EC10 of GABA was approximated for each cell. Stability of GABA-mediated (EC10) current was established. Modulatory effect of test compound was determined and compared across subtypes. […] Thus, the assay can characterize modulatory effects and determine subtype selectivity of test compounds on major subtypes of GABAA receptors.
# (§2) Surgically removed ovarian lobes were teased out in OR2 solution (82 NaCl, 2.5 KCl, 5 HEPES, 1.5 NaH2PO4, 1 MgCl2, 0.1 EDTA, in mM, pH 7.4). The oocytes were defolliculated by incubation in 25 mL OR2 containing 0.2% collagenase 1A (SIGMA) two times for about 60 minutes on a platform shaker and stored in Leibovitz's L-15 medium. Oocytes were injected the following day in 0.5× Leibovitz's L-15 medium containing […] gentamycin, 10 units/ml penicillin, and […] streptomycin.
# (§3) Capped cRNAs from the linearized vectors containing human α1, β2 and γ2 subunits of the GABAA receptor genes were mixed in ratio of 1:1:30. Oocytes were injected with 25-50 nL of mixed RNA with an appx molar ratio for α1, β2, and γ2 as 1:1:10. Oocyte recordings were done 2-10 days after injection. The same methods apply to subtypes derived from α2β2γ2, α3β3γ2, and α5β3γ2, except for 1:1:1 ratio was used for α, β, and γ subunits.
# (§4) All measurements were done in a medium containing ND-96 (96 NaCl, 2 KCl, 1.8 CaCl2.2H2O, 1 MgCl2.6H2O, 5 HEPES, in mM, pH 7.5). Two-electrode voltage-clamp recording was carried out using OpusXpress amplifier (Axon Instruments, Foster City, Calif.), which allows simultaneous recording from 8 oocytes. Oocytes were impaled with two electrodes of 1-2 MΩ tip resistance when filled with 3M KCl. Recordings were begun when membrane potential became stable at potentials negative to −50-−60 mV. Membrane potential was held at −60 mV. […] The concentration of GABA corresponded to the EC10 value calculated for each oocyte. The modulator pulses started 30 s before the GABA pulse so as to allow preincubation with the modulator. A set of 3 pulses with just GABA without modulator was given prior to the modulator-containing pulses to define the baseline GABA response. Two oocytes per each experiment were dedicated to observe the effect of diazepam on GABA response to ensure the presence of γ2 subunit in the GABAA pentameric complex, which imparts diazepam sensitivity to the complex.
# (§5) Current amplitude (i) was measured from baseline to peak using Clampfit (Axon Inst., Foster City, Calif.). Potentiation was calculated as percent change from the baseline GABA current flux 100×(imod/icontrol)−1) where imod=current mediated by modulator+GABA and icontrol=current mediated by GABA alone. […] Similarly, a value of −50% potentiation means the presence of modulator caused a 50% decrease in the control current. Various other data shown here were fitted and plotted using GraphPad Prism (GraphPad Software, Inc. San Diego, Calif.). The percentage potentiation was converted to relative potentiation by dividing it with percentage potentiation value obtained from the same assay with diazepam as a control.
# [2] = target: T2, human α2β3γ2 GABAA receptor (Homo sapiens, UniProt P18507+P47869); assay: Two-electrode voltage-clamp in Xenopus oocytes, potentiation of GABA EC10 current, GABAA2; type: cell-based; settings: percentage potentiation of GABA EC10 current divided by that of diazepam control
# T2 construct: expressed in transfected cells; host or cells: Xenopus laevis oocytes injected with capped cRNA (α:β:γ 1:1:1)
# Procedure: as §1, §2, §3, §4, §5
# T1 sequence (P14867 28-456): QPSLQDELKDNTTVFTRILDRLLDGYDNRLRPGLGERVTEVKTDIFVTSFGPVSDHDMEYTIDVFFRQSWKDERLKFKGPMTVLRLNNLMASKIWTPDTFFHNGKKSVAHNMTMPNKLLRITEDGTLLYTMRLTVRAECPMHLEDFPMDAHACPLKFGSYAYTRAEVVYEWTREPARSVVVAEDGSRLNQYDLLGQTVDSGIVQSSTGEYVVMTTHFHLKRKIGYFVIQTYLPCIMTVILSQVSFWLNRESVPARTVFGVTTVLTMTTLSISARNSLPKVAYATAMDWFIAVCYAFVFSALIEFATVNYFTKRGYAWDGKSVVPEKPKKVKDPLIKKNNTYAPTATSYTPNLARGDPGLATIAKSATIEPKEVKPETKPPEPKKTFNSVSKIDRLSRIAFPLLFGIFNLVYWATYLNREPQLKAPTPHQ
# T1 sequence (P47870 25-512 partner limits assumed): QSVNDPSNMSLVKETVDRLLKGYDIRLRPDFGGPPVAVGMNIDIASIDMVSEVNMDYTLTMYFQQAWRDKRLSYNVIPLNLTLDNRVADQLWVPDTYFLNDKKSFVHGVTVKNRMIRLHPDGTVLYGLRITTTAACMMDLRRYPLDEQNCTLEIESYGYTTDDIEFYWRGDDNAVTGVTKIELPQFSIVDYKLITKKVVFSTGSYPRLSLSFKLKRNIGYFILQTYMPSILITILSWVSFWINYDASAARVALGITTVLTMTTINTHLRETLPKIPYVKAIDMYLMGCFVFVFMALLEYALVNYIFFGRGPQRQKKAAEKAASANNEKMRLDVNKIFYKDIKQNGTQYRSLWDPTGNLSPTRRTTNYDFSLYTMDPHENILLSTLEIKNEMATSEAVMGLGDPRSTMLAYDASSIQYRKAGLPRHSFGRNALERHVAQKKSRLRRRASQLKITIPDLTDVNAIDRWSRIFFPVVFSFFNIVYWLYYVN
# T1 sequence (P18507 40-475): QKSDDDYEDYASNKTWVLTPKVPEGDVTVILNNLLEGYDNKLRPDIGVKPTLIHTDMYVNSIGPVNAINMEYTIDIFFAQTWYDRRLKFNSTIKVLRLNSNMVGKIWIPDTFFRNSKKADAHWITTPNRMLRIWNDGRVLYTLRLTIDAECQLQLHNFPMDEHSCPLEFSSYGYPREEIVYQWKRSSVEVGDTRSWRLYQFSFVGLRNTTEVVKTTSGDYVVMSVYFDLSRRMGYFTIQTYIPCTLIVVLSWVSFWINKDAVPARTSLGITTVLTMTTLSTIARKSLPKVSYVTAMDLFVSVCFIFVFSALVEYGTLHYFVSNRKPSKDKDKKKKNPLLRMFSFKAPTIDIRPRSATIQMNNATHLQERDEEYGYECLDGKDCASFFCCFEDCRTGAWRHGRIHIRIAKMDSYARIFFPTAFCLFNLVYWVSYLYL
# T2 sequence (P47869 29-451): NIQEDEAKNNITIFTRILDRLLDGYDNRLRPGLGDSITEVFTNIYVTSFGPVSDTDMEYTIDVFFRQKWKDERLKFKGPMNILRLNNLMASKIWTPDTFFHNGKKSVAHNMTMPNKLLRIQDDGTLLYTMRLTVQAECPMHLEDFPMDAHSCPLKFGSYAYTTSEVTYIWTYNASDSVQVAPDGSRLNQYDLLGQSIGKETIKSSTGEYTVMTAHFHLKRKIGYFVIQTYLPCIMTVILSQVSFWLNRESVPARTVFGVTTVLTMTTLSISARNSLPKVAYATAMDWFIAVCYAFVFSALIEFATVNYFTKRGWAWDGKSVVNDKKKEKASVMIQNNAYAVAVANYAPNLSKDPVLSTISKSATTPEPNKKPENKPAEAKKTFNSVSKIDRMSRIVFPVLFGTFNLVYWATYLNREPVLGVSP
# T2 sequence (P18507 40-475): as the sequence (P18507 40-475) above
# T2 sequence (P28472 26-473 partner): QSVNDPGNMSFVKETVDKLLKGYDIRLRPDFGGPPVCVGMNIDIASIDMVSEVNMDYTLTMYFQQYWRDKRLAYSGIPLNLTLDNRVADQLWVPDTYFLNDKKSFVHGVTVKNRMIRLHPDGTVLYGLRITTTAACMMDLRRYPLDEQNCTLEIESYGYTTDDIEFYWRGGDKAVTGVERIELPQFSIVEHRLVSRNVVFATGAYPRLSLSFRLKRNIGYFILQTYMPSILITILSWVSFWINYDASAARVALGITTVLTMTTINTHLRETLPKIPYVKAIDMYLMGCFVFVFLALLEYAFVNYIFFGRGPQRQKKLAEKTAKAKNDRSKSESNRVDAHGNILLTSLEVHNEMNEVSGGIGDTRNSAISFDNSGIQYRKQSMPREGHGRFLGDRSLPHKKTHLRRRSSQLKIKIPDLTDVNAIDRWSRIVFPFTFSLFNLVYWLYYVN
Compound,Relative Potentiation for GABAA1 [1],Relative Potentiation for GABAA2 [2]
CCCNC(=O)c1nnc2c(-c3cc(C(F)(F)F)cc(C(F)(F)F)c3)cccc2c1N,0.44,0.13
CCCNC(=O)c1nnc2c(-c3ccccc3)c(OC)ccc2c1N,0.12,0.08
COc1cccc(F)c1-c1cccc2c(N)c(C(=O)NC3CCC3)nnc12,0.0017,0.12
CCCNC(=O)c1nnc2c(-c3cnc4ccccc4c3)cccc2c1N,−0.15,0.11
CCCCNC(=O)c1nnc2c(-c3cnccc3OC)cccc2c1N,0.2,0.52
CCCNC(=O)c1nnc2c(-c3ccc(OC)c(OC)c3OC)cccc2c1N,0.47,0.33
COc1ccc(-c2cccc3c(N)c(C(=O)NC4CCC4)nnc23)c(OC)c1,0.091,0.243
CCCNC(=O)c1nnc2c(-c3ccccc3)c(Cl)ccc2c1N,0.25,0.16
CCCNC(=O)c1nnc2c(-c3ccccn3)cccc2c1N,0.027,−0.032
CCCNC(=O)c1nnc2c(-c3cccnc3)cccc2c1N,−0.11,0.054
CCCNC(=O)c1nnc2c(-c3ccccc3C(F)(F)F)cccc2c1N,0.12,0.063
CCCNC(=O)c1nnc2c(-c3cc(C(F)(F)F)ccc3F)cccc2c1N,0.41,0.59
CCCNC(=O)c1nnc2c(-c3c(Cl)cccc3OC)cccc2c1N [drawing 410],−0.040,0.119
CCCNC(=O)c1nnc2c(-c3cncc(OC)c3)cccc2c1N,0.07,0.34
CCCNC(=O)c1nnc2c(-c3cc(OC)cc(OC)c3)cccc2c1N,0.28,0.57
CCCNC(=O)c1nnc2c(-c3cc(F)ccc3OC)cccc2c1N,0.026,0.4
CCCNC(=O)c1nnc2c(-c3cccc(F)c3OC)cccc2c1N,0.11,0.11
CCCNC(=O)c1nnc2c(-c3cc(C)nn3C)cccc2c1N,0.23,0.18
CCCNC(=O)c1nnc2c(-c3cc(F)cc(F)c3OC)c(F)ccc2c1N,0.1,0.14
CCNC(=O)c1nnc2c(-c3cnc(OC)nc3OC)cccc2c1N,0.005,0.35
CCCNC(=O)c1nnc2c(-c3ccc(C)nc3F)cccc2c1N,0.053,0.27
CCCNC(=O)c1nnc2c(-c3cncc(C(=O)N4CCC4)c3)cccc2c1N,−0.11,−0.033
CCCNC(=O)c1nnc2c(-c3ccc(OC)cc3F)c(F)ccc2c1N,0.053,0.18
CCCNC(=O)c1nnc2c(-c3ccc(OC(F)(F)F)cc3)cccc2c1N,0.32,0.04
CCCNC(=O)c1nnc2c(-c3cccc(OC)c3)cccc2c1N,0.13,0.22
CCCNC(=O)c1nnc2c(-c3ccc(C)nc3)cccc2c1N,−0.16,0.14
CCCNC(=O)c1nnc2c(-c3cnccc3C)cccc2c1N,0.083,0.11
CCCNC(=O)c1nnc2c(-c3ccncc3)cccc2c1N,−0.038,0.1
